EC50, Activity and IC50 data for 39 compounds are collected here from ChEMBL document CHEMBL1681693, “Synthesis and SAR of centrally active mGlu5 positive allosteric modulators based on an aryl acetylenic bicyclic lactam scaffold” (Bioorg Med Chem Lett, 2011).

Test [1] has as its target T1, Metabotropic glutamate receptor 5 (Homo sapiens, UniProt P41594). The test is described as follows: Positive allosteric modulation of mGlu5 receptor assessed as calcium mobilization. Format: functional. Background: A change in cytosolic calcium serves as a functional read-out for many receptors and channels.
Target sequence in this assay (P41594 whole entry): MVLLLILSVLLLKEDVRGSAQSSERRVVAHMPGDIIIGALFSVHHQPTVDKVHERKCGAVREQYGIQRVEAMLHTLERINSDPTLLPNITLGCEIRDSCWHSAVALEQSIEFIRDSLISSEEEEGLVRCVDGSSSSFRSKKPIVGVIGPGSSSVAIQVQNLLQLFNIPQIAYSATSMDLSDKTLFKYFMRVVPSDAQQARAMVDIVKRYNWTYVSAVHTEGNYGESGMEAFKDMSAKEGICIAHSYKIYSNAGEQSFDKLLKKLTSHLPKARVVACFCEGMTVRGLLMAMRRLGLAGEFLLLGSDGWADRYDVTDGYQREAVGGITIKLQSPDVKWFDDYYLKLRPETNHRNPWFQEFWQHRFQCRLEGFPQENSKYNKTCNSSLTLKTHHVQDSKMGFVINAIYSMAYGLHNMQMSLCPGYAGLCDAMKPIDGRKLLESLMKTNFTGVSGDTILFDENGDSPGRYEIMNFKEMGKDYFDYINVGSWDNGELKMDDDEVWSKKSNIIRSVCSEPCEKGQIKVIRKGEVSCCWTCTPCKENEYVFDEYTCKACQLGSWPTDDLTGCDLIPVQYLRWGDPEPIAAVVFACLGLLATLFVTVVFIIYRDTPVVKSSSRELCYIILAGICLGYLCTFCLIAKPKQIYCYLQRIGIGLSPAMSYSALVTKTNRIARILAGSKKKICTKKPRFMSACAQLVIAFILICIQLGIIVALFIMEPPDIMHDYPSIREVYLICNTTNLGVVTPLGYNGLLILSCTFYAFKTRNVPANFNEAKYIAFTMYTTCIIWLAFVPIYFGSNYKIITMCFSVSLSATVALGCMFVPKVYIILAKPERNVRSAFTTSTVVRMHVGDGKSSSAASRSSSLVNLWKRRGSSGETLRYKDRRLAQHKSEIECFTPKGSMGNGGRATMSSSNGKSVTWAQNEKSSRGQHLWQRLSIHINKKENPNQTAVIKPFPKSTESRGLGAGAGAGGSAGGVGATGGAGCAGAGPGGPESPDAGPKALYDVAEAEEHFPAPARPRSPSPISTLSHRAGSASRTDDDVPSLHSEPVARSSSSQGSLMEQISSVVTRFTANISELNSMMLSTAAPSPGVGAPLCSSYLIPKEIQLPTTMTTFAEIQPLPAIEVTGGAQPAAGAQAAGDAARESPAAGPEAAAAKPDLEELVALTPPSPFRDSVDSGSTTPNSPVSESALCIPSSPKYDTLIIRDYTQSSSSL
Test [2] deals with T1, Metabotropic glutamate receptor 5. As to the kind of experiment: Positive allosteric modulation of mGlu5 receptor assessed as calcium mobilization at 30 uM relative to glutamate. It counts as functional.
Target sequence in this assay (P41594 21-1212 limits assumed): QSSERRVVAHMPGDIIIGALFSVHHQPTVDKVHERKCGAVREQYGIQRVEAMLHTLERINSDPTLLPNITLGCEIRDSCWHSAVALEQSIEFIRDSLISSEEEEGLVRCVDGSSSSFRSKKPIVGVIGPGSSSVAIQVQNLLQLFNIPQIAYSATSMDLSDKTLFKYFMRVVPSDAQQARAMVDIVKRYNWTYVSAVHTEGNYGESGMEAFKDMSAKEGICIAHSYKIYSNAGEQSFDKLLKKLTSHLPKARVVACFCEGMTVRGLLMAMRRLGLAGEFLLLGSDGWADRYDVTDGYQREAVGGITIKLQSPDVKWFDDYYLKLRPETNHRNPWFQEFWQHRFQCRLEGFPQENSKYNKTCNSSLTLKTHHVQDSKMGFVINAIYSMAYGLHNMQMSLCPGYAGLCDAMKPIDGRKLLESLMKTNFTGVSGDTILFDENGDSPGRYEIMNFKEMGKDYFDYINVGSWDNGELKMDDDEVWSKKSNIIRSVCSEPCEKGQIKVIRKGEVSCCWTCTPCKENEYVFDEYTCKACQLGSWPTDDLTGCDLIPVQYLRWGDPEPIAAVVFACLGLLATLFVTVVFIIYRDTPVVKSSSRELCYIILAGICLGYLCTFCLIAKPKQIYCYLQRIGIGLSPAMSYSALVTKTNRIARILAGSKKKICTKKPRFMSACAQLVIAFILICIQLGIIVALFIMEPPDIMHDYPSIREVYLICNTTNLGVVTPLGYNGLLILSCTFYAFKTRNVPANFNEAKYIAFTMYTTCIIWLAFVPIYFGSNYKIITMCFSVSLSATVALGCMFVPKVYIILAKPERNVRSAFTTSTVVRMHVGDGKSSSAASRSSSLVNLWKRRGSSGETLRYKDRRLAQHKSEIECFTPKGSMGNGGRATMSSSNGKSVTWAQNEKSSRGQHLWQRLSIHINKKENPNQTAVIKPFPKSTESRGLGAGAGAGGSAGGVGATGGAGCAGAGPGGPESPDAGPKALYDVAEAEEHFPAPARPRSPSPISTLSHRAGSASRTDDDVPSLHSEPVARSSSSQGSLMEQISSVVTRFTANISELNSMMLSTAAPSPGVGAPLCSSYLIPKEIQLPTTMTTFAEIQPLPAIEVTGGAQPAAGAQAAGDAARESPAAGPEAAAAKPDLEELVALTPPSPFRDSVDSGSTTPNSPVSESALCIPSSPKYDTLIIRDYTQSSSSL
Another test has as its system Rattus norvegicus. The test is described as follows: Antipsychotic activity in rat assessed as reversal of amphetamine-induced hyperlocomotion at 30 mg/kg, ip. The arrangement: dose 30 mg/kg. It counts as functional, organism-based.
Test [3] concerns the target T1, Metabotropic glutamate receptor 5. As to the kind of experiment: Antagonist activity against mGlu5 receptor assessed as inhibition of calcium mobilization.
Target sequence in this assay (P41594 whole entry): as the sequence (P41594 whole entry) above

The source made the active and inactive calls. The rule behind the calls is not given here.

For the compound `O=C1NC(=O)c2cc(C#Cc3cccc(F)c3)ccc21`, the EC50 in test [1] was determined as 35 nM. For the same compound, the Activity in test [2] worked out at 99%. For `O=C1NCCc2cc(C#Cc3ccccc3Cl)ccc21` the same measures were 3700 nM and 50%. Regarding `O=C1NC(=O)c2cc(C#Cc3ccc(F)cc3)ccc21`, the EC50 in test [1] was 160 nM. For the same compound, the Activity in test [2] was determined as 88%.

For `O=C1NCCc2cc(C#Cc3ccccc3)ccc21`, the result in the test with Rattus norvegicus was Active.

`O=C1NC(=O)c2cc(C#Cc3ccc(F)c(F)c3)ccc21`: the EC50 in test [1] was 170 nM. Also, the Activity in test [2] was 84%. Regarding `CC(C)CN1CCc2nc(C#Cc3cccc(F)c3)ccc2C1=O`, the EC50 in test [1] was determined as 54 nM. In addition, the Activity in test [2] was found to be 40%. `O=C1c2ccc(C#Cc3cccc(F)c3)nc2CCN1CC1CC1`: in test [3], the IC50 is 660 nM. With `COc1cccc(C#Cc2ccc3c(c2)CCNC3=O)c1`, the EC50 in test [1] turned out to be 3400 nM. Also, the Activity in test [2] came out at 58%. With `O=C1c2ccc(C#Cc3ccccc3)cc2CCN1CCN1CCC1`, the EC50 in test [1] came out at 4000 nM. Also, the Activity in test [2] turned out to be 77%. With `O=C1c2ccc(C#Cc3ccccc3)cc2CCN1Cc1ccccc1`, the EC50 in test [1] turned out to be 550 nM. Also, in test [2], the Activity was found to be 90%. `O=C1c2ccc(C#Cc3cccc(F)c3)nc2CCN1CC1CCC1`: the EC50 in test [1] is 130 nM. Moreover, the Activity in test [2] was 53%.

In the case of `CCCCN1CCc2nc(C#Cc3cccc(F)c3)ccc2C1=O`, the EC50 in test [1] came to 56 nM. Besides, the Activity in test [2] worked out at 46%. For `O=C1NCCc2cc(C#Cc3cccc(Cl)c3)ccc21`, the EC50 in test [1] was 470 nM. The Activity in test [2] came to 68%. Take `O=C1NCCc2cc(C#Cc3ccccc3F)ccc21`: the EC50 in test [1] was found to be 150 nM. In addition, the Activity in test [2] was determined as 80%. For `O=C1c2ccc(C#Cc3ccccc3)cc2C(=O)N1CCc1ccccn1` the same measures were 870 nM and 40%. As for `CCCCN1CCc2cc(C#Cc3ccccc3)ccc2C1=O`, the concentration for a half-maximal effect (EC50) in test [1] worked out at 96 nM. The Activity in test [2] was 97%.

As to `Cc1cccc(C#Cc2ccc3c(c2)CCNC3=O)c1`, in test [1], the EC50 worked out at 170 nM. Besides, the Activity in test [2] turned out to be 76%. For `O=C1NCc2cc(C#Cc3ccccc3F)ccc21`, the EC50 in test [1] is 200 nM. The Activity in test [2] was 67%. Take `O=C1NCCc2cc(C#Cc3ccc(F)cc3)ccc21`: in test [1], the EC50 came out at 260 nM. Besides, the Activity in test [2] was found to be 81%.

Regarding `O=C1c2ccc(C#Cc3ccccc3)cc2C(=O)N1CCN1CCOCC1`, the EC50 in test [1] was determined as 5700 nM. Moreover, the Activity in test [2] is 44%. With `CN1CCc2cc(C#Cc3ccccc3)ccc2C1=O`, the EC50 in test [1] was 250 nM. The Activity in test [2] is 53%. As for `CN1CCc2nc(C#Cc3cccc(F)c3)ccc2C1=O`, in test [3], the 50% inhibitory concentration (IC50) was determined as 170 nM. Regarding `O=C1c2ccc(C#Cc3ccccc3)cc2CCN1CCN1CCOCC1`, the EC50 in test [1] was 3600 nM. The Activity in test [2] was found to be 84%. For `O=C1c2ccc(C#Cc3ccccc3)cc2CCN1CC1CCC1` the same measures were 270 nM and 91%. In the case of `O=C1NC(=O)c2cc(C#Cc3ccccc3F)ccc21`, the EC50 in test [1] was 12 nM. Besides, the Activity in test [2] was found to be 93%. Turning to `O=C1NCc2cc(C#Cc3cccc(F)c3)ccc21`, the EC50 in test [1] worked out at 66 nM. The Activity in test [2] came out at 71%. For the compound `O=C1NCc2cc(C#Cc3ccc(F)cc3)ccc21`, the EC50 in test [1] amounted to 350 nM. Besides, in test [2], the Activity worked out at 60%. On to `O=C1NCCc2cc(C#Cc3ccc(F)cc3F)ccc21`, for which, in test [1], the EC50 is 850 nM. Besides, the Activity in test [2] came to 59%. For the compound `O=C1c2ccc(C#Cc3ccccc3)cc2CCN1CC1CC1`, the EC50 in test [1] worked out at 180 nM. In test [2], the Activity was determined as 69%. For the same compound, in the test on Rattus norvegicus, the result was Active. Consider `Cc1ccccc1C#Cc1ccc2c(c1)CCNC2=O`, for which the half-maximal effective concentration (EC50) in test [1] turned out to be 610 nM. For the same compound, in test [2], the Activity stood at 53%. For the compound `O=C(c1ccc(C#Cc2ccccc2)cc1)N1CCC(O)CC1`, the EC50 in test [1] stood at 10 nM. In addition, in test [2], the Activity amounted to 72%. Regarding `O=C1NCCc2cc(C#Cc3ccc(Cl)cc3)ccc21`, the EC50 in test [1] is more than 10000 nM. In the case of `COc1ccc(C#Cc2ccc3c(c2)CCNC3=O)cc1`, in test [1], the EC50 is more than 10000 nM. With `O=C1NCc2cc(C#Cc3ccccc3)ccc21`, the Activity in test [2] was found to be 69%. With `Cc1cc(C#Cc2ccc3c(c2)CCNC3=O)ccc1F`, the EC50 in test [1] came to 4900 nM. Further, the Activity in test [2] was 53%. For `O=C1c2ccc(C#Cc3ccccc3)cc2C(=O)N1CCc1ccncc1` the same measures were 900 nM and 76%. `O=C1NCCc2nc(C#Cc3cccc(F)c3)ccc21`: the EC50 in test [1] was determined as 290 nM. In addition, the Activity in test [2] turned out to be 72%. Regarding `CCCN1CCc2cc(C#Cc3ccccc3)ccc2C1=O`, the EC50 in test [1] is 160 nM. Moreover, the Activity in test [2] is 97%. In the test with Rattus norvegicus, the result was Active. Consider `O=C(NC1CCC1)c1ccc(C#Cc2cccc(F)c2)nc1`, for which, in test [1], the EC50 stood at 16 nM. Moreover, in test [2], the Activity turned out to be 87%.

Broadly, the EC50 is the concentration needed to bring the measured effect to its halfway point. What is called IC50 is the concentration that inhibits the measured activity by half.
